Legend:
nitric oxide (NO) = assay: Nitrite/NO level (Greiss reagent) in brain homogenate of PTZ-treated mice; assay type: in vivo; settings: brain supernatant, compared to pentylenetetrazole-treated group, n = 6
Description: (§1) Brain tissue homogenates were prepared by isolating the brain (tissue) from the mice. Animals were euthanized under anesthesia by ketamine (80 mg/kg) and xylazine (5 mg/kg) after 8 h of inducing test and standard compounds. Mice’s brains (tissue) were quickly removed and weighed, and the whole brain samples were washed twice with ice-cold saline solution before being deposited in glass vials, labeled, and stored in a deep freeze (−30°C) until further use. Brain tissue samples were homogenized with a glass handheld homogenizer (PTFE coated). Tissue homogenates (10% w/v) were prepared in cold 0.1 M phosphate buffer (pH adjusted to 7.4) using a homogenizer. To test biological parameters, the supernatant from homogenates was centrifuged at 12,000 rpm for 20 min at 4°C.
Greiss reagent, a solution of 0.5% sulfonamide, 2.5% phosphoric acid, and 0.05% naphthyl ethylenediamine, was used to measure nitric oxide (NO) in TSH. Greiss reagent and TSH absorbance were measured at 540 nm, and the sodium nitrite standard curve was used to calculate the quantity of nitrite ([Wills, 1996]; [Green et al., 1982]).

PTZ-induced seizures = assay: Subcutaneous pentylenetetrazole (sc-PTZ) test; assay type: in vivo, male Swiss albino mice; settings: for Minimum active dose (mg/kg) Sc-PTZ 0.5 h / Minimum active dose (mg/kg) Sc-PTZ 4 h: oral, lowest dose active in half or more of the mice, n = 6;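 as to % protection Sc-PTZ 0.5 h: percent reduction of the test group versus the control group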;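 as to % protection Sc-PTZ 4 h: percent reduction of the test group versus the control group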
[1] = molecular target: T1, human carbonic anhydrase II (Homo sapiens, UniProt P00918); assay: Human carbonic anhydrase II colorimetric (p-nitrophenyl acetate) inhibition assay; assay type: biochemical; settings: mean ± SEM, three independent experiments in triplicate; read-out: CA II (IC50)
T1 construct: purchased Sino Biological Inc, Beijing, China
Description: (§2) In brief, the reaction mixture contained 60 μL of 50 mM Tris-sulfate buffer (pH 7.6, containing 0.1 mM ZnCl2),10 μL (0.5 mM) of the test compound in 1% DMSO, and 10 μL of human carbonic anhydrase II and IX (Sino Biological Inc, Beijing, China). All the ingredients were mixed well and pre-incubated at 25°C for 10 min. Substrate p-nitrophenyl acetate was prepared as a 6 mM stock solution using 5% of acetonitrile in buffer and was used fresh. […] The total assay volume was adjusted to 100 μL and further incubated at 37°C for 30 min. Furthermore, all the ingredients were mixed properly, and absorbance was measured. […] The results reported are the mean of triplicate experiments (±SEM) and expressed IC50 values, which were calculated.

[2] = molecular target: T2, human carbonic anhydrase IX (Homo sapiens, UniProt Q16790); assay: Human carbonic anhydrase IX colorimetric (p-nitrophenyl acetate) inhibition assay; assay type: biochemical; settings: mean ± SEM, three independent experiments in triplicate; read-out: CA IX (IC50)
T2 construct: purchased Sino Biological Inc, Beijing, China
Description: as §2

glutathione (GSH) = assay: Reduced glutathione level in brain of PTZ-treated mice; assay type: in vivo; settings: compared to pentylenetetrazole-treated group, n = 6
Description: as §1
The quantity of glutathione (GSH) in the brain was determined using the Sedlak and Lindsay method ([Pant et al., 2023]). In brief, brain tissue was deproteinized with an equal amount of 10% TCA and left at 4°C for 2 h. The contents were centrifuged for 15 min at 1200 rpm. The supernatant was mixed with 2 mL of 0.4 M Tris buffer (pH 8.9) containing 0.02 M EDTA (pH 8.9), and then 0.01 M DTNB was added. Finally, the mixture was diluted with 0.5 mL of distilled water to make a total volume of 3 mL, and absorbance was measured using a spectrophotometer at 412 nm, with results expressed as mg GSH/gm tissue.

MES-induced seizures = assay: Maximal electroshock-induced seizure (MES) test; assay type: in vivo, male Swiss albino mice; settings: for Minimum active dose (mg/kg) MES 0.5 h / Minimum active dose (mg/kg) MES 4 h: oral, lowest dose active in half or more of the mice, n = 6;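 as to % protection MES 0.5 h: percent reduction of the test group versus the control group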;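 as to % protection MES 4 h: percent reduction of the test group versus the control group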
induced seizures = assay: Anticonvulsant screening (MES and sc-PTZ), outcome recovery/death
Description: The test compounds and the standard drugs were dissolved in a 0.9% NaCl solution.
After half an hour of p.o. administration of the standard and the tested compounds, an electro-convulsometer (Outus, Ambala Cantt, India) delivered an electrical stimulus of sufficient intensity (25 mA, 500 V, 50 Hz, 0.2 s) via auricular electrodes to induce maximal seizures (Figure 1). To avoid the animal’s death, a drop of 0.9% saline was injected into the eye before the insertion of the electrodes. The tonic hind limb extension (i.e., the hind limbs of the animals outstretched 180° to the plane of the body axis) served as the basic principle for the occurrence of seizure activity. Abolition of the hind limb tonic extensor (HLTE) component of the seizure is defined as protection.

mice = assay: Rotarod neurotoxicity screening; assay type: in vivo, male Swiss albino mice; settings: for Neurotoxicity (rotarod test), result in words: at the highest dose (300 mg/kg); for Neurotoxicity dose (mg/kg) 0.5 h / Neurotoxicity dose (mg/kg) 4 h: rotarod, oral doses 30, 100, 300 mg/kg
Description: The rotarod test, as described in the literature, was used to evaluate neurotoxicity (NT) in mice. In brief, six mice (one group) were trained to balance on a spinning rod (3 cm diameter and 6 rpm speed) to familiarize with the rotarod apparatus (Orchid Scientific, India). Each mouse underwent three trials to remain on the rotating rod for over 1 minute, with the experiment’s cutoff time (180 s) remaining constant. Different pre-oral (p.o.) doses of test and standard substances were administered to the trained animals.

GABA level = assay: Estimation of brain GABA level; assay type: in vivo, mice; settings: 30 mg/kg p.o., 2 h after administration, compared to pentylenetetrazole-treated group
Description: as §1, with “Animals were euthanized under anesthesia by ketamine (80 mg/kg) and xylazine (5 mg/kg) after 8 h of inducing test and standard compounds.” left out
The supernatant was put on silica gel 60 F254 aluminum sheets (10 cm × 10 cm) as the stationary phase, with the mobile phase consisting of water-saturated phenol. Prior to chromatography, TLC plates were prewashed with methanol and activated in an oven at 50°C for 5 min. The 0.1 mL supernatant solutions were applied in the form of bands on TLC plates. At room temperature, ascending development was carried out in a glass chamber saturated with the mobile phase for 30 min until a length of 80 mm was reached. The TLC plates that had been created were air-dried and treated with ninhydrin. […] The method’s specificity was determined by obtaining standard GABA samples and comparing their Rf values. […]

[3] = system: superoxide dismutase (SOD); assay: Superoxide dismutase activity in brain homogenate of PTZ-treated mice; assay type: in vivo; settings: compared to PTZ-administered group, n = 6
Description: as §1
Sun et al.'s approach ([…]) was used to determine Cu, Zn-SOD activity. An oxidase complex ([…]) generates superoxide radicals, which react with NBT to yield the formazan molecule in this process. In brief, a reactive was created by combining 0.1 mM xanthine, 0.1 mM EDTA, 50 mg bovine serum albumin, 25 mM NBT, and 40 mM Na2CO3 (pH 10.2). […] The sample’s absorbance was measured at 560 nm. […] The quantity of the enzyme that blocked NBT conversion to formazan by 50% was determined as one unit of SOD activity. SOD activity was measured in units per milligram of protein.

[4] = system: total antioxidant capacity (TAC); assay: Total antioxidant capacity (FRAP) in brain tissue of PTZ-treated mice; assay type: in vivo; settings: compared to pentylenetetrazole-treated group, n = 6
Description: as §1
Total antioxidant capacity (TAC) was measured by mixing 200 μL of tissue samples with 3 mL of ferric-reducing antioxidant power (FRAP) reagent in a vortex. After incubating samples and blank tubes in a water bath for 30 min at 37°C, the absorbance of the samples was measured at 593 nm. For the standard curve, a stock solution of FeSO4.7H2O in distilled water was produced. Stock solution concentrations were 200, 400, 800, 1200, and 1600 μM. The curve results were given as mM of ferrous sulfate equivalent Fe2+/L ([Sun et al., 1988]).

Structure (SMILES): CCN(CC)CCOc1cccc(C(=O)Nc2nncs2)c1 [Compound 6d, 3-(2-(diethylamino)ethoxy)-N-(1,3,4-thiadiazol-2-yl)benzamide]
- NO (nitrite) level (nitric oxide (NO)): significantly reduced NO levels
- % protection Sc-PTZ 0.5 h (PTZ-induced seizures; 30 mg/kg oral): 38.59%
- % protection Sc-PTZ 4 h (PTZ-induced seizures; 30 mg/kg oral): 46.34%
- % protection Sc-PTZ 0.5 h (PTZ-induced seizures; 100 mg/kg oral): 58.30%
- % protection Sc-PTZ 4 h (PTZ-induced seizures; 100 mg/kg oral): 66.34%
- % protection Sc-PTZ 0.5 h (PTZ-induced seizures; 300 mg/kg oral): 70.4%
- % protection Sc-PTZ 4 h (PTZ-induced seizures; 300 mg/kg oral): 82.88%
- Minimum active dose (mg/kg) Sc-PTZ 0.5 h (PTZ-induced seizures): 30 mg/kg
- Minimum active dose (mg/kg) Sc-PTZ 4 h (PTZ-induced seizures): 30 mg/kg
- IC50 [1]: 80 ± 50 nM
- IC50 [2]: 100 ± 20 nM
- GSH level (glutathione (GSH)): significant increase in GSH levels
- % protection MES 0.5 h (MES-induced seizures; 30 mg/kg oral): 38.96%
- % protection MES 4 h (MES-induced seizures; 30 mg/kg oral): 41.53%
- % protection MES 0.5 h (MES-induced seizures; 100 mg/kg oral): 55.38%
- % protection MES 4 h (MES-induced seizures; 100 mg/kg oral): 60%
- % protection MES 0.5 h (MES-induced seizures; 300 mg/kg oral): 72.30%
- % protection MES 4 h (MES-induced seizures; 300 mg/kg oral): 89.46%
- Minimum active dose (mg/kg) MES 0.5 h (MES-induced seizures): 30 mg/kg
- Minimum active dose (mg/kg) MES 4 h (MES-induced seizures): 30 mg/kg
- Recovery/death (induced seizures; 30 mg/kg oral): Recovery
- Recovery/death (induced seizures; 100 mg/kg oral): Recovery
- Recovery/death (induced seizures; 300 mg/kg oral): Recovery
- Neurotoxicity (rotarod test), result in words (mice): without any sign of neurotoxicity
- Neurotoxicity dose (mg/kg) 0.5 h (mice): - (The indication - (dash) denotes a lack of action at the maximum dose supplied (300 mg/kg))
- Neurotoxicity dose (mg/kg) 4 h (mice): - (The indication - (dash) denotes a lack of action at the maximum dose supplied (300 mg/kg))
- GABA level in the brain (GABA level): significant increase in GABA levels
- SOD activity [3]: significant increase in SOD activity
- TAC level (FRAP) [4]: significant increase in TAC levels

Structure (SMILES): CCN(CC)CCOc1cc(C(=O)Nc2nncs2)ccc1OC [Compound 7d, 4-Methoxy-3-(2-(diethylamino)ethoxy)-N-(1,3,4-thiadiazol-2-yl)benzamide]
- NO (nitrite) level (nitric oxide (NO)): significantly reduced NO levels
- % protection Sc-PTZ 0.5 h (PTZ-induced seizures; 30 mg/kg oral): 42.43%
- % protection Sc-PTZ 0.5 h (PTZ-induced seizures; 100 mg/kg oral): 53.27%
- % protection Sc-PTZ 4 h (PTZ-induced seizures; 100 mg/kg oral): 62.85%
- % protection Sc-PTZ 0.5 h (PTZ-induced seizures; 300 mg/kg oral): 61.46%
- % protection Sc-PTZ 4 h (PTZ-induced seizures; 300 mg/kg oral): 75.18%
- Minimum active dose (mg/kg) Sc-PTZ 0.5 h (PTZ-induced seizures): 30 mg/kg
- Minimum active dose (mg/kg) Sc-PTZ 4 h (PTZ-induced seizures): 100 mg/kg
- IC50 [1]: 480 ± 40 nM
- IC50 [2]: 280 ± 30 nM
- GSH level (glutathione (GSH)): significant increase in GSH levels
- % protection MES 0.5 h (MES-induced seizures; 30 mg/kg oral): 30.76%
- % protection MES 4 h (MES-induced seizures; 30 mg/kg oral): 40%
- % protection MES 0.5 h (MES-induced seizures; 100 mg/kg oral): 41.53%
- % protection MES 4 h (MES-induced seizures; 100 mg/kg oral): 63.07%
- % protection MES 0.5 h (MES-induced seizures; 300 mg/kg oral): 61.53%
- % protection MES 4 h (MES-induced seizures; 300 mg/kg oral): 76.92%
- Minimum active dose (mg/kg) MES 0.5 h (MES-induced seizures): 30 mg/kg
- Minimum active dose (mg/kg) MES 4 h (MES-induced seizures): 30 mg/kg
- Recovery/death (induced seizures; 30 mg/kg oral): Recovery
- Recovery/death (induced seizures; 100 mg/kg oral): Recovery
- Recovery/death (induced seizures; 300 mg/kg oral): Recovery
- Neurotoxicity (rotarod test), result in words (mice): without any sign of neurotoxicity
- Neurotoxicity dose (mg/kg) 0.5 h (mice): - (The indication - (dash) denotes a lack of action at the maximum dose supplied (300 mg/kg))
- Neurotoxicity dose (mg/kg) 4 h (mice): - (The indication - (dash) denotes a lack of action at the maximum dose supplied (300 mg/kg))
- GABA level in the brain (GABA level): significant increase in GABA levels
- TAC level (FRAP) [4]: significant increase in TAC levels

Structure (SMILES): COc1ccc(C(=O)Nc2nncs2)cc1OCCN(C)C [Compound 7e, 4-Methoxy-3-(2-(dimethylamino)ethoxy)-N-(1,3,4-thiadiazol-2-yl)benzamide]
- % protection Sc-PTZ 0.5 h (PTZ-induced seizures; 30 mg/kg oral): 34.26%
- % protection Sc-PTZ 0.5 h (PTZ-induced seizures; 100 mg/kg oral): 43.07%
- % protection Sc-PTZ 4 h (PTZ-induced seizures; 100 mg/kg oral): 61.04%
- % protection Sc-PTZ 0.5 h (PTZ-induced seizures; 300 mg/kg oral): 60%
- % protection Sc-PTZ 4 h (PTZ-induced seizures; 300 mg/kg oral): 67.81%
- Minimum active dose (mg/kg) Sc-PTZ 0.5 h (PTZ-induced seizures): 30 mg/kg
- Minimum active dose (mg/kg) Sc-PTZ 4 h (PTZ-induced seizures): 100 mg/kg
- IC50 [1]: 530 ± 30 nM
- IC50 [2]: 610 ± 20 nM
- % protection MES 0.5 h (MES-induced seizures; 30 mg/kg oral): 36.92%
- % protection MES 0.5 h (MES-induced seizures; 100 mg/kg oral): 43.07%
- % protection MES 4 h (MES-induced seizures; 100 mg/kg oral): 58.46%
- % protection MES 0.5 h (MES-induced seizures; 300 mg/kg oral): 60%
- % protection MES 4 h (MES-induced seizures; 300 mg/kg oral): 72.30%
- Minimum active dose (mg/kg) MES 0.5 h (MES-induced seizures): 30 mg/kg
- Minimum active dose (mg/kg) MES 4 h (MES-induced seizures): 100 mg/kg
- Recovery/death (induced seizures; 30 mg/kg oral): Recovery
- Recovery/death (induced seizures; 100 mg/kg oral): Recovery
- Recovery/death (induced seizures; 300 mg/kg oral): Recovery
- Neurotoxicity dose (mg/kg) 0.5 h (mice): - (The indication - (dash) denotes a lack of action at the maximum dose supplied (300 mg/kg))
- Neurotoxicity dose (mg/kg) 4 h (mice): - (The indication - (dash) denotes a lack of action at the maximum dose supplied (300 mg/kg))

Source: PMC11861159, “Design, synthesis, and in vitro, in vivo, and in silico evaluation of novel substituted 1,3,4-thiadiazole derivatives as anticonvulsant agents” (Frontiers in Chemistry, 2025)
